Experimental data: patent US20040166509A1, “Detecting hormonally active compounds” (priority 2002, published 2004)

Tested on: liver cDNAs of adult male LMB
Test: LMB gene arrays of SSH-derived cDNAs: liver of fish treated with androgens
Format: in vivo, largemouth bass (LMB)
Conditions: DHT 62.5 μg/g, 11-KT 20 μg/g vs DMSO
Method: For each cDNA clone, the general background of each membrane was subtracted from the average value of the duplicate spots on the membrane. The values were then normalized to the average value of seven cDNA clones specific to ribosomal genes and the fold change calculated by dividing the mean of each treatment by the mean of the control. Those genes which changed by 2-fold or more were graphed. Significant differences (p<0.05) were determined by ANOVA and secondary testing was done by using […].

Structure (SMILES): C[C@]12CC(=O)[C@H]3[C@@H](CCC4=CC(=O)CC[C@@]43C)[C@@H]1CC[C@@H]2O [11-KT, 11-ketotestosterone]
- 24-1 (LOC L1) change: down
- ALPHA TUBULIN (LOC M2) change: down
- COMPLEMENT C3 (LOC L3) change: down
- CYSTATIN (LOC O3) change: down-regulated
- ER GAMMA 5′ 2F (LOC L14) change: down
- EST SEASONAL 9 (LOC D13) change: up (Those genes which changed by 2-fold or more were graphed)
- EST SEASONAL 51 (LOC K11) change: down
- EST SEASONAL 55 (LOC M4) change: down
- EST SEASONAL 62 (LOC B14) change: up (Those genes which changed by 2-fold or more were graphed)
- EST SEASONAL 64 (LOC H7) change: up (Those genes which changed by 2-fold or more were graphed)
- EST SEASONAL 72 (LOC K12) change: down
- EST SEASONAL F21 (LOC O13) change: down
- ESTP4_H07 (LOC K13) change: up (Those genes which changed by 2-fold or more were graphed)
- GP3 11C (LOC K1) change: down
- LDL RC (LOC J10) change: down
- LMB24-1 (Unknown) differentially expressed by androgens: dn-reg DHT;
- LMB151 vitellogenin receptor differentially expressed by: Dn-reg
- LMB CYSTATIN-PREC (Cystatin precursor) differentially expressed by: Dn-reg 11-KT
- LMB EST--SEASONAL_64 differentially expressed by: up-reg DHT;
- LMB EST--SEASONAL_72 differentially expressed by: Dn-reg DHT;
- LMB EST--SEASONAL_F17 differentially expressed by: Dn-reg 11-KT
- LMB EST-SEASONAL_55 differentially expressed by: Dn-reg 11-KT;
- LMB EST-SEASONALf17 differentially expressed by: down by 11KT
- LMB RIKEN 1110001M01 differentially expressed by: up by 11KT;
- LMB_ALPHA-TUBULIN (alpha tubulin) differentially expressed by: Dn-reg 11-kt;
- LMB_COMPLEMENT-C3 (Complement C3 precursor) differentially expressed by: Dn-reg DHT;
- LMB_ER-GAMMA ESTROGEN RECEPTOR GAMMA differentially expressed by (11-KT): Dn-reg 11-KT;
- LMB_EST-SEASONAL_09 differentially expressed by: up-reg DHT;
- LMB_EST-SEASONAL_11 differentially expressed by: dn-reg 11-KT
- LMB_EST-SEASONAL_51 differentially expressed by: dn 11-KT;
- LMB_ESTDHT64 differentially expressed by: up by 11KT
- LMB_ESTDHT_62 differentially expressed by: up-reg DHT;
- LMB_LDL RC (LDL receptor) differentially expressed by: Dn-reg DHT;
- LMB_RXR INTERACT PROT (Retinoid X receptor interacting protein) differentially expressed by: Dn-reg 11-KT;
- LMB_SOL-CAR-25A#5 (solute carrier family 25 alpha member 5) differentially expressed by: up-reg DHT;
- LMB_SSAT (SSAT) differentially expressed by: up-reg DHT;
- LMB_WARM-WATER ACC PROTEIN (Warm water acclimation-related protein) differentially expressed by: up-reg 11-KT
- LMB_ZPC1 (ZPC1) differentially expressed by: up-reg DHT;
- LMB_ZPC4 (ZPC4) differentially expressed by: up-reg DHT;
- PTTP (LOC O10) change: up-
- RETINOL DEHYDROGENASE (LOC M11) change: up (Those genes which changed by 2-fold or more were graphed)
- RIKEN 1110001M01 (LOC O11) change: up (Those genes which changed by 2-fold or more were graphed)
- RXR INTERACTING PROT (LOC L11) change: down
- SOLUTE CARRIER (LOC B13) change: up (Those genes which changed by 2-fold or more were graphed)
- SSAT (LOC C13) change: up (Those genes which changed by 2-fold or more were graphed)
- TFIID (change to liver regeration related protein) (LOC M12) change: down
- VTG PRECURSOR (LOC D14) change: up (Those genes which changed by 2-fold or more were graphed)
- VTG RC (LOC M14) change: down
- ZPC1 (LOC H14) change: up (Those genes which changed by 2-fold or more were graphed)
- ZPC4 (LOC I14) change: up (Those genes which changed by 2-fold or more were graphed)
- warm water acclim (LOC E14) change: up (Those genes which changed by 2-fold or more were graphed)

Structure (SMILES): C[C@]12CCC(=O)C[C@@H]1CC[C@@H]1[C@@H]2CC[C@]2(C)[C@@H](O)CC[C@@H]12 [DHT, dihydrotestosterone]
- 24-1 (LOC L1) change: down
- 53-1 (LOC B2) change: down
- 68-1 (LOC C2) change: down
- 97-8 (LOC F2) change: up (Those genes which changed by 2-fold or more were graphed)
- ALDOLASE B (LOC K2) change: down
- ALPHA 1 ANTI-TRYPSIN (LOC L2) change: down
- ALPHA TUBULIN (LOC M2) change: down
- APOL[…] (LOC C3) change: down
- ATP SYNTHASE (LOC K7) change: up (Those genes which changed by 2-fold or more were graphed)
- ATPASE 6 (LOC E3) change: up (Those genes which changed by 2-fold or more were graphed)
- ATPASE SUBUNIT 6 (LOC F9) change: up (Those genes which changed by 2-fold or more were graphed)
- COMPLEMENT C3 (LOC L3) change: down
- CYSTATIN (LOC O3) change: down
- ER GAMMA 5′ 2F (LOC L14) change: down
- EST DHT64 (LOC D4) change: up (Those genes which changed by 2-fold or more were graphed)
- EST P4_06 (LOC L8) change: up (Those genes which changed by 2-fold or more were graphed)
- EST P4_D08 (LOC N8) change: up (Those genes which changed by 2-fold or more were graphed)
- EST SEASONAL 9 (LOC D13) change: up (Those genes which changed by 2-fold or more were graphed)
- EST SEASONAL 11 (LOC O6) change: down
- EST SEASONAL 12 (LOC B8) change: up (Those genes which changed by 2-fold or more were graphed)
- EST SEASONAL 42 (LOC H10) change: down
- EST SEASONAL 51 (LOC K11) change: down
- EST SEASONAL 55 (LOC M4) change: down
- EST SEASONAL 56 (LOC F12) change: up (Those genes which changed by 2-fold or more were graphed)
- EST SEASONAL 62 (LOC B14) change: up (Those genes which changed by 2-fold or more were graphed)
- EST SEASONAL 64 (LOC H7) change: up (Those genes which changed by 2-fold or more were graphed)
- EST SEASONAL 72 (LOC K12) change: down
- EST SEASONAL 88 (LOC E12) change: up (Those genes which changed by 2-fold or more were graphed)
- EST SEASONAL 90 (LOC L9) change: down
- EST SEASONAL F17 (LOC B9) change: down
- EST SEASONAL F21 (LOC O13) change: down
- ESTDHT60 (LOC F5) change: down
- ESTP4_C04 (LOC G9) change: down
- ESTP4_E01 (LOC K5) change: down
- ESTP4_E06 (LOC D6) change: down
- ESTP4_H07 (LOC K13) change: up (Those genes which changed by 2-fold or more were graphed)
- GP3 11C (LOC K1) change: down
- G[…] (LOC G5) change: down-regulated and down
- HAPTOGLOBIN (LOC I5) change: down
- HEPCIDIN (LOC J5) change: down
- IGF-I (LOC M5) change: down
- LDL RC (LOC J10) change: down
- LMB24-1 (Unknown) differentially expressed by androgens: dn-reg DHT;
- LMB53-1 (unknown) differentially expressed by androgens: Down-reg. E2;
- LMB68-1 (hypothetical protein) differentially expressed by: Dn-reg DHT
- LMB97 choriogenin-3 differentially expressed by androgens: Up-reg E2;
- LMB112-1 cathepsin (Aspartic protease) differentially expressed by androgens: up-reg E; NP:
- LMB151 vitellogenin receptor differentially expressed by: Dn-reg
- LMB CIS-RETIN DEHYDRO (cis-retinol dehydrogenase) differentially expressed by: up-reg DHT
- LMB EST--SEASONAL_64 differentially expressed by: up-reg DHT;
- LMB EST--SEASONAL_72 differentially expressed by: Dn-reg DHT;
- LMB EST--SEASONAL_88 differentially expressed by: up-reg DHT;
- LMB EST--SEASONAL_90 differentially expressed by: dn-reg DHT
- LMB EST--SEASONAL_F21 differentially expressed by: Dn-reg DHT
- LMB EST-SEASONAL_55 differentially expressed by: Dn-reg 11-KT;
- LMB EST-SEASONAL_56 differentially expressed by: up-reg DHT;
- LMB GLUT-PEROX III (Glutathione peroxidase III) differentially expressed by: Dn-reg DHT
- LMB LIV-REGER-PROT differentially expressed by: down by DHT
- LMB RIKEN 1110001M01 differentially expressed by: up by 11KT;
- LMB_ALPHA-TUBULIN (alpha tubulin) differentially expressed by: Dn-reg 11-kt;
- LMB_ATPASE 6 (ATPase subunit 6) differentially expressed by: up-reg DHT
- LMB_COMPLEMENT-C3 (Complement C3 precursor) differentially expressed by: Dn-reg DHT;
- LMB_EST-SEASONAL_09 differentially expressed by: up-reg DHT;
- LMB_EST-SEASONAL_12 differentially expressed by: up-reg DHT
- LMB_EST-SEASONAL_51 differentially expressed by: dn 11-KT;
- LMB_ESTDHT_62 differentially expressed by: up-reg DHT;
- LMB_ESTP4-E01 differentially expressed by: down by DHT
- LMB_HAPTOGLOBIN (Haptoglobin) differentially expressed by: Dn-reg DHT
- LMB_HEPCIDIN (Hepcidin precursor) differentially expressed by: dn-reg DHT
- LMB_LDL RC (LDL receptor) differentially expressed by: Dn-reg DHT;
- LMB_LECTIN STL2 (Rhamnose binding lectin STL2) differentially expressed by: up-reg DHT
- LMB_MITOCHON-ATP-SYNTHASE (ATP synthase alpha chain mitochondrial precursor) differentially expressed by: up-reg DHT
- LMB_RXR INTERACT PROT (Retinoid X receptor interacting protein) differentially expressed by: Dn-reg 11-KT;
- LMB_SOL-CAR-25A#5 (solute carrier family 25 alpha member 5) differentially expressed by: up-reg DHT;
- LMB_SSAT (SSAT) differentially expressed by: up-reg DHT;
- LMB_ZPC1 (ZPC1) differentially expressed by: up-reg DHT;
- LMB_ZPC4 (ZPC4) differentially expressed by: up-reg DHT;
- PTTP (LOC O10) change: up (Those genes which changed by 2-fold or more were graphed)
- RETINOL DEHYDROGENASE (LOC M11) change: up (Those genes which changed by 2-fold or more were graphed)
- RHAMNOSE BINDING LECTIN (LOC G13) change: up (Those genes which changed by 2-fold or more were graphed)
- RIKEN 1110001M01 (LOC O11) change: up (Those genes which changed by 2-fold or more were graphed)
- RIKEN 2700038C09 (LOC D12) change: down
- RXR I[…] (LOC L11) change: down
- SOLUTE CARRIER (LOC B13) change: up (Those genes which changed by 2-fold or more were graphed)
- SSAT (LOC C13) change: up (Those genes which changed by 2-fold or more were graphed)
- TFIID (change to liver regeration related protein) (LOC M12) change: down
- TFIIIA (LOC J13) change: up (Those genes which changed by 2-fold or more were graphed)
- UNNAMED PROTEIN (LOC C14) change: up (Those genes which changed by 2-fold or more were graphed)
- VTG PRECURSOR (LOC D14) change: up (Those genes which changed by 2-fold or more were graphed)
- VTG RC (LOC M14) change: down
- ZPC1 (LOC H14) change: up (Those genes which changed by 2-fold or more were graphed)
- ZPC4 (LOC I14) change: up (Those genes which changed by 2-fold or more were graphed)
- warm water acclim (LOC E14) change: up (Those genes which changed by 2-fold or more were graphed)
